Reference: ChEMBL document CHEMBL1121678, “Antitumor agents. 44. Bis(helenalinyl) esters and related derivatives as novel potent antileukemic agents” (1981)

Legend:
Format in all cases: functional
Mus musculus [1] = assay: Antileukemic activity of compound against the P-388 lymphocytic leukemic BDF1 male mice at 15(mg/kg)/day, administered intraperitoneally; 11.0/9.66 (Treated/control)
Mus musculus [2] = assay: In vivo antileukemic activity against P-388 lymphocytic leukemia in BDF1 male mice at 60 mg/kg/day intraperitoneal dose expressed as T/C
Mus musculus [3] = assay: Antileukemic activity of compound against the P-388 lymphocytic leukemic BDF1 male mice at 0.6(mg/kg)/day, administered intraperitoneally; 11/9.66 (Treated/control)
Mus musculus [4] = assay: Antileukemic activity of compound against the P-388 lymphocytic leukemic BDF1 male mice at 0.6(mg/kg)/day, administered intraperitoneally; 11.6/9.66 (Treated/control)
Mus musculus [5] = assay: In vivo antileukemic activity against P-388 lymphocytic leukemia in BDF1 male mice at 8(mg/kg)/day intraperitoneal dose expressed as T/C
Mus musculus [6] = assay: Antileukemic activity of compound against the P-388 lymphocytic leukemic BDF1 male mice at 8(mg/kg)/day, administered intraperitoneally; 11.8/9.66 (Treated/control)
Mus musculus [7] = assay: Antileukemic activity of compound against the P-388 lymphocytic leukemic BDF1 male mice at 15(mg/kg)/day, administered intraperitoneally; 13.2/9.66 (Treated/control)
Mus musculus [8] = assay: Antileukemic activity of compound against the P-388 lymphocytic leukemic BDF1 male mice at 15(mg/kg)/day, administered intraperitoneally (Treated/control)
Mus musculus [9] = assay: In vivo antileukemic activity against P-388 lymphocytic leukemia in BDF1 male mice at 30(mg/kg)/day intraperitoneal dose expressed as T/C
Mus musculus [10] = assay: In vivo antileukemic activity against P-388 lymphocytic leukemia in BDF1 male mice at 4(mg/kg)/day intraperitoneal dose expressed as T/C
Mus musculus [11] = assay: Antileukemic activity of compound against the P-388 lymphocytic leukemic BDF1 male mice at 30(mg/kg)/day, administered intraperitoneally; 15.2/9.66 (Treated/control)
Mus musculus [12] = assay: Antileukemic activity of compound against the P-388 lymphocytic leukemic BDF1 male mice at 15(mg/kg)/day, administered intraperitoneally; 13.6/9.66 (Treated/control)
Mus musculus [13] = assay: In vivo antileukemic activity against P-388 lymphocytic leukemia in BDF1 male mice at 15(mg/kg)/day intraperitoneal dose expressed as T/C
Mus musculus [14] = assay: Antileukemic activity of compound against the P-388 lymphocytic leukemic BDF1 male mice at 2(mg/kg)/day, administered intraperitoneally; 11.6/9.66 (Treated/control)
Mus musculus [15] = assay: Antileukemic activity of compound against the P-388 lymphocytic leukemic BDF1 male mice at 4(mg/kg)/day, administered intraperitoneally; 11.0/9.66 (Treated/control)
Mus musculus [16] = assay: Antileukemic activity of compound against the P-388 lymphocytic leukemic BDF1 male mice at 60 mg/kg/day, administered intraperitoneally; 12.6/9.66 (Treated/control); settings: route intraperitoneal
Mus musculus [17] = assay: In vivo antileukemic activity against P-388 lymphocytic leukemia in BDF1 male mice at 2(mg/kg)/day intraperitoneal dose expressed as T/C
Mus musculus [18] = assay: Antileukemic activity of compound against the P-388 lymphocytic leukemic BDF1 male mice at 8(mg/kg)/day, administered intraperitoneally; […]/[…] (Treated/control)
Mus musculus [19] = assay: Antileukemic activity of compound against the P-388 lymphocytic leukemic BDF1 male mice at 25(mg/kg)/day, administered intraperitoneally; 13.3/9.66 (Treated/control)
Mus musculus [20] = assay: Antileukemic activity of compound against the P-388 lymphocytic leukemic BDF1 male mice at 15(mg/kg)/day, administered intraperitoneally; 11.4/9.66 (Treated/control)
Mus musculus [21] = assay: In vivo antileukemic activity against P-388 lymphocytic leukemia in BDF1 male mice at 25(mg/kg)/day intraperitoneal dose expressed as T/C

## C=C1C(=O)O[C@@H]2C[C@@H](C)[C@@H]3CCC(=O)[C@@]3(C)[C@@H](OC(=O)CC(=O)OCC)[C@H]12
Mus musculus [1]
  Average survival (days): 11
Mus musculus [2]
  T/C: 114%

## CCOC(=O)CC(=O)OCC [MALONIC ACID DIETHYL ESTER]
Mus musculus [3]
  Average survival (days): 11
Mus musculus [2]
  T/C: 114%

## CCOC(=O)CCC(=O)OCC [SUCCINIC ACID DIETHYL ESTER]
Mus musculus [4]
  Average survival (days): 11.6
Mus musculus [2]
  T/C: 120%

## C=C1C(=O)O[C@@H]2C[C@@H](C)[C@@H]3CCC(=O)[C@@]3(C)[C@@H](OC(=O)CC(=O)O[C@H]3[C@@H]4C(=C)C(=O)O[C@@H]4C[C@@H](C)[C@@H]4CCC(=O)[C@]43C)[C@H]12
Mus musculus [5]
  T/C: 122%
Mus musculus [6]
  Average survival (days): 11.8
Mus musculus [7]
  Average survival (days): 13.2
Mus musculus [8]
  T/C: 137%

## O=C(O)CCC(=O)O [SUCCINIC ACID]
Mus musculus [2]
  T/C: 111%

## C=C1C(=O)O[C@@H]2C[C@@H](C)[C@@H]3CCC(=O)[C@@]3(C)[C@@H](OC(=O)CCC(=O)O[C@H]3[C@@H]4C(=C)C(=O)O[C@@H]4C[C@@H](C)[C@@H]4CCC(=O)[C@]43C)[C@H]12
Mus musculus [9]
  T/C: 157%
Mus musculus [10]
  T/C: 114%
Mus musculus [11]
  Average survival (days): 15.2
Mus musculus [12]
  Average survival (days): 13.6
Mus musculus [13]
  T/C: 141%
Mus musculus [14]
  Average survival (days): 11.6
Mus musculus [2]
  T/C: 130%
Mus musculus [15]
  Average survival (days): 11
Mus musculus [16]
  Average survival (days): 12.6
Mus musculus [17]
  T/C: 120%

## C[C@@H]1C[C@H]2OC(=O)[C@@H](C)[C@H]2[C@H](O)[C@]2(C)C(=O)C=C[C@@H]12
Mus musculus [5]
  T/C: 111%
Mus musculus [18]
  Average survival (days): 10.7
Mus musculus [19]
  Average survival (days): 13.3
Mus musculus [13]
  T/C: 118%
Mus musculus [20]
  Average survival (days): 11.4
Mus musculus [21]
  T/C: 138%
